Source: patent US7989466B2, “Methods to inhibit or augment an inflammatory response” (Cambridge Enterprise Limited, priority 1999, dated 2011)
Positions of bridges follow the written chain, without caps; N, C: chain ends. Non-standard residues stand in square brackets, D forms with d. Residues, ends and D or L forms follow the SMILES beside them. No end group written: not given here.

Tests used:
THP-1 cells = experiment: Agonist activity: agent in the lower compartment of the THP-1 migration chamber; conditions: agent in place of chemokine
[1] = tested on: MCP-1 induced human monocyte migration; experiment: Human monocyte migration, MCP-1; format: cell-based; conditions: n.s. = no statistically significant inhibition
Protocol: Agents may also be screened in a chemotactic assay which employs human neutrophils, eosinophils, mast cells, basophils, platelets, lymphocytes or monocytes. For monocytes, 9 mls of fresh blood are transferred to a tube containing 1 ml of 3.8% sodium citrate, and left at room temperature for 15 minutes. Five mls of this anti-coagulated blood are carefully layered over 3.5 ml Polymorphprep® (Nycomed Pharma, Oslo), and centrifuged at 500 g for 35 minutes per the manufacturer's instructions. The top band at the sample/medium interface contains monocytes. The monocytes are carefully removed with a glass pipette, and reconstituted to the original volume (5 ml). The cells are washed with PBS plus 10% fetal calf serum, and centrifuged at 400 g for 10 minutes. The washing step is repeated three times before the cells are counted. Cells are resuspended at 1×10^7 cells/ml in RPMI-1640+10% fetal calf serum (FCS). The monocytes are cultured for two days at 37° C. in a humidified atmosphere of 5% CO2.
On day 2, the cells are counted, spun down, and reconstituted to 1×10^7 cells/ml in Gey's balanced salt solution+1 mg/ml bovine serum albumin (BSA). Chemotaxis is induced in a 48 or 96-well disposable chemotaxis chamber fitted with a 5-8 μm polycarbonate filter for monocytes, neutrophils or eosinophils, or a 3 μm filter for lymphocytes (Uguccioni et al, Eur. J. Immunol., 25, 64 (1995); Loetscher et al., J. Exy. Med., 184, 569 (1996); Weber et al., J. Immunol., 4166 (1995)) (PVP free, ChemoTX, Neuroprobe Inc., Cabin John, Md.). Twenty-nine μl of chemoattractant or control are added to the lower compartment of each well. The framed filter is aligned with the holes in the corner of the filter frame and placed over the wells. Two and one-half×10^5 monocytes in 25 μl of Gey's balanced salt solution+1 mg/ml BSA are added to the upper compartment. The agent is dissolved in MilliQ water and then serially diluted in the Gey's balanced salt solution. In most cases, the serially diluted agent is added to the upper compartment of the chemotaxis chamber. […]

HIV (MN) = experiment: HIV infectivity of THP-1 cells, p24gag immunofluorescence; format: cell-based; conditions: 100 μM peptide, HIV strain MN, 72 hours
Protocol: (a) HIV (IIIb) replication in cultures of Jurkat T-cells was estimated by measuring the supernatant reverse transcriptase activity two weeks after infection. Peptide 2 and peptide 3 were at 100 μM final concentration and SDF-1α was added at 100 ng/ml final concentration 1 hour prior to exposure to virus. Values are mean±SEM from 12 wells, expressed as the percentage of the reverse transcriptase activity in the supernatant from the control wells. The experiment shown is typical of six separate experiments. (b) HIV (IIIb) infectivity of Jurkat T-cells was estimated by staining cells treated identically to those in (a) for p24^gag expression. Values are mean±S.D. percentage of cells stained for p24gag averaged from 12 fields of view from each of two separate wells. (c) HIV (MN) infectivity of THP-1 cells measured as in (b). MIP-1α was used at 100 ng/ml final concentration. (d) Immunofluorescence micrographs of THP-1 cells 48 hours after exposure to HIV (MN) in the absence (top panel) or presence (lower panel) of 100 μM peptide 3, stained for p24^gag. Several cells in the upper panel, but not the lower panel, show strong, punctuate staining for p24^gag antigen. Both fields of view contain 40-50 cells (assessed by Hoeschst 33345 staining viewed under UV illumination conditions).
Jurkat cells following HIV infection were attached to 8-well chamber slides (Becton-Dickinson) by spinning the slides using a plate rotor in a Labofuge centrifuge (Haeraeus) at 3,000×g for 5 minutes. Attached Jurkat cells or THP-1 cells were then fixed by dipping the slides into ice-cold 70% ethanol for 90 seconds. […] A threshold was then applied to each image which was the lowest threshold that detected <1% of the pixels of an image of uninfected cells stained under identical conditions. The number of objects exceeding this threshold in each field of view were counted. This process, for example, detected 9 objects in the field of view shown in the upper panel of FIG. 54D and 1 object in the field of view shown in the lower panel. […]

Compound	agonist activity (THP-1 cells)	% inhibition at 100 μM versus MCP-1, human monocyte migration [1] [%]	inhibition of HIV infectivity of THP-1 cells, p24gag staining (HIV (MN))	inhibition of HIV infectivity of THP-1 cells, p24gag staining (HIV (MN); listed as second peptide, spanning amino acids 51 to 62 of human MCP-1) [%]	% inhibition at 100 μM versus MCP-1, human monocyte migration ([1]; listed as Peptide 2 (SEQ ID NO: 3)) [%]
CC[C@@H](C)[C@H]1NC(=O)[C@@H](CCC(N)=O)NC(=O)[C@H](N)CSSC[C@H](C(N)=O)NC(=O)[C@@H](CC(C)C)NC(=O)[C@@H](CC(=O)O)NC(=O)[C@H]2CCCN2C(=O)[C@@H](CCCCN)NC(=O)[C@@H](CCC(N)=O)NC(=O)[C@@H](CCCCN)NC(=O)[C@@H](Cc2c[nH]c3ccccc23)NC1=O (H-[dC][dQ][dI][dW][dK][dQ][dK][dP][dD][dL][dC]-NH2; disulfide 1-11; N-terminus assumed)	No agonist activity was detected in the concentration range where inhibitory effects on chemokine-induced migration are seen (<1 μM)	–	–	–	–
EICADPKQKWVQ [peptide 3(1-12)[MCP-1]]	–	108	more than 80%	83±7	–
SYRRITSSKCPKEAV [peptide 2(1-15)[MCP-1]]	weak agonist properties	20	28±5%	–	23
